Assay results from publication PMC9090415, “Discovery of small molecule inhibitors of Plasmodium falciparum apicoplast DNA polymerase” (Journal of Enzyme Inhibition and Medicinal Chemistry, 2022).

Molecular target: P. falciparum apicoplast DNA polymerase (Pf-apPOL) (Plasmodium falciparum, UniProt Q8ILY1)
Test: Fluorescence-based high-throughput DNA polymerase assay (molecular beacon), primary screen and dose-response;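 as to % inhibition Apol 40': compound concentration given in µM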
Format: biochemical
Conditions: for DNA Pol: 90 min, 10 µM
Method in brief: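 Single-point screening used 10 µM compound with 20 nM polymerase, 20 nM hairpin substrate and 6 µM dNTPs for 90 min at 25 °C. Confirmatory titrations (2.5–80 µM) followed fluorescence at three times, and IC50 was derived from a fit including a cooperativity term n.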

[1] = 'DNA Pol' of the 186 hits list (primary screen value)

Chain of P. falciparum apicoplast DNA polymerase (Pf-apPOL) (Q8ILY1 entry or part of it): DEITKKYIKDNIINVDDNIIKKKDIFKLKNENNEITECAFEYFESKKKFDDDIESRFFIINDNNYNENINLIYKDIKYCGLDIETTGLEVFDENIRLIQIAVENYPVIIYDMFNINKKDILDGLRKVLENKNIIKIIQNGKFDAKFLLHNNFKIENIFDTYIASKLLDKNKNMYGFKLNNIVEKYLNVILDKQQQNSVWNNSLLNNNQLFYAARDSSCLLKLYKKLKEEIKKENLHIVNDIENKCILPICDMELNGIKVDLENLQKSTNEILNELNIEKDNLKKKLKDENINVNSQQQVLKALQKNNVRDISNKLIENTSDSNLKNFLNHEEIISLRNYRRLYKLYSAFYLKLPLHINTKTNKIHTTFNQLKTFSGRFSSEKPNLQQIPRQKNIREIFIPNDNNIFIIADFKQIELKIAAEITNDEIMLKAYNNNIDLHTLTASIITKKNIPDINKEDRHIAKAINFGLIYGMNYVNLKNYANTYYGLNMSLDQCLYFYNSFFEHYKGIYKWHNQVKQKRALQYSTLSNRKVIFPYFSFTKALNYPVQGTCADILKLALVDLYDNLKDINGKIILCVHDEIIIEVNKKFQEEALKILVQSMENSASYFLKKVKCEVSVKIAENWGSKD

Structure (SMILES): COc1ccc(CNC(=O)Cn2nc3c(c2NC(=O)Cc2cccs2)CSC3)cc1 [Molecule 55, COc1ccc(cc1)CNC(=O)Cn1nc2c(c1NC(=O)Cc1cccs1)CSC2]
- DNA Pol [1]: 42
- DNA Pol (DNA Pol (primary screen value)): 42
- % inhibition Apo pol 10' (DRC-1, concentration 2.5): 7.186%
- % inhibition Apo pol 10' (DRC-1, concentration 5): 13.7887%
- % inhibition Apo pol 10' (DRC-1, concentration 10): 43.1349%
- % inhibition Apo pol 10' (DRC-1, concentration 20): 61.7989%
- % inhibition Apo pol 10' (DRC-1, concentration 40): 74.6193%
- % inhibition Apo pol 10' (DRC-1, concentration 80): 82.9138%
- % inhibition Apol 90' (DRC-1, concentration 2.5): -3.211%
- % inhibition Apol 90' (DRC-1, concentration 5): 0.071%
- % inhibition Apol 90' (DRC-1, concentration 10): 21.9926%
- % inhibition Apol 90' (DRC-1, concentration 20): 39.7839%
- % inhibition Apol 90' (DRC-1, concentration 40): 59.3907%
- % inhibition Apol 90' (DRC-1, concentration 80): 77.3387%
- % inhibition apPOL 180' (DRC-1, concentration 2.5): -10.7492%
- % inhibition apPOL 180' (DRC-1, concentration 5): -8.12%
- % inhibition apPOL 180' (DRC-1, concentration 10): 5.391%
- % inhibition apPOL 180' (DRC-1, concentration 20): 18.5765%
- % inhibition apPOL 180' (DRC-1, concentration 40): 40.1483%
- % inhibition apPOL 180' (DRC-1, concentration 80): 66.9877%
- % inhibition Apo pol 5' (DRC-2, concentration 2.5): -0.186%
- % inhibition Apo pol 5' (DRC-2, concentration 5): -3.35%
- % inhibition Apo pol 5' (DRC-2, concentration 10): 16%
- % inhibition Apo pol 5' (DRC-2, concentration 20): 23%
- % inhibition Apo pol 5' (DRC-2, concentration 40): 32%
- % inhibition Apo pol 5' (DRC-2, concentration 80): 26%
- % inhibition Apol 40' (DRC-2, concentration 2.5): -0.881%
- % inhibition Apol 40' (DRC-2, concentration 5): -4.6%
- % inhibition Apol 40' (DRC-2, concentration 10): 17%
- % inhibition Apol 40' (DRC-2, concentration 20): 23%
- % inhibition Apol 40' (DRC-2, concentration 40): 47%
- % inhibition Apol 40' (DRC-2, concentration 80): 53%
- % inhibition ApPOL 90' (DRC-2, concentration 2.5): -1.87%
- % inhibition ApPOL 90' (DRC-2, concentration 5): -7%
- % inhibition ApPOL 90' (DRC-2, concentration 10): 13%
- % inhibition ApPOL 90' (DRC-2, concentration 20): 19%
- % inhibition ApPOL 90' (DRC-2, concentration 40): 45%
- % inhibition ApPOL 90' (DRC-2, concentration 80): 63%
- % inhibition apPOL 180' (DRC-2, concentration 2.5): -6.63%
- % inhibition apPOL 180' (DRC-2, concentration 5): -14%
- % inhibition apPOL 180' (DRC-2, concentration 10): 1.41%
- % inhibition apPOL 180' (DRC-2, concentration 20): 5%
- % inhibition apPOL 180' (DRC-2, concentration 40): 35%
- % inhibition apPOL 180' (DRC-2, concentration 80): 65%

Structure (SMILES): O=C1N=C(Nc2cccc(Cl)c2Cl)S/C1=C\c1ccco1 [Molecule 3, O=C1N=C(S/C/1=C\c1ccco1)Nc1cccc(c1Cl)Cl]
- DNA Pol [1]: 74
- DNA Pol (DNA Pol (primary screen value)): 74
- % inhibition Apo pol 10' (DRC-1, concentration 2.5): 26.4621%
- % inhibition Apo pol 10' (DRC-1, concentration 5): 50.3585%
- % inhibition Apo pol 10' (DRC-1, concentration 10): 71.7156%
- % inhibition Apo pol 10' (DRC-1, concentration 20): 70.1447%
- % inhibition Apo pol 10' (DRC-1, concentration 40): 64.4851%
- % inhibition Apo pol 10' (DRC-1, concentration 80): 49.9988%
- % inhibition Apol 90' (DRC-1, concentration 2.5): 14.8677%
- % inhibition Apol 90' (DRC-1, concentration 5): 38.7366%
- % inhibition Apol 90' (DRC-1, concentration 10): 64.2373%
- % inhibition Apol 90' (DRC-1, concentration 20): 68.803%
- % inhibition Apol 90' (DRC-1, concentration 40): 72.5757%
- % inhibition Apol 90' (DRC-1, concentration 80): 68.4026%
- % inhibition apPOL 180' (DRC-1, concentration 2.5): 3.99%
- % inhibition apPOL 180' (DRC-1, concentration 5): 24.8255%
- % inhibition apPOL 180' (DRC-1, concentration 10): 52.4106%
- % inhibition apPOL 180' (DRC-1, concentration 20): 60.3634%
- % inhibition apPOL 180' (DRC-1, concentration 40): 70.3618%
- % inhibition apPOL 180' (DRC-1, concentration 80): 71.4479%
- % inhibition Apo pol 5' (DRC-2, concentration 2.5): 35%
- % inhibition Apo pol 5' (DRC-2, concentration 5): 38%
- % inhibition Apo pol 5' (DRC-2, concentration 10): 42%
- % inhibition Apo pol 5' (DRC-2, concentration 20): 31%
- % inhibition Apo pol 5' (DRC-2, concentration 40): 11%
- % inhibition Apo pol 5' (DRC-2, concentration 80): -21%
- % inhibition Apol 40' (DRC-2, concentration 2.5): 37%
- % inhibition Apol 40' (DRC-2, concentration 5): 44%
- % inhibition Apol 40' (DRC-2, concentration 10): 58%
- % inhibition Apol 40' (DRC-2, concentration 20): 56%
- % inhibition Apol 40' (DRC-2, concentration 40): 44%
- % inhibition Apol 40' (DRC-2, concentration 80): 25%
- % inhibition ApPOL 90' (DRC-2, concentration 2.5): 34%
- % inhibition ApPOL 90' (DRC-2, concentration 5): 42%
- % inhibition ApPOL 90' (DRC-2, concentration 10): 59%
- % inhibition ApPOL 90' (DRC-2, concentration 20): 60%
- % inhibition ApPOL 90' (DRC-2, concentration 40): 53%
- % inhibition ApPOL 90' (DRC-2, concentration 80): 40%
- % inhibition apPOL 180' (DRC-2, concentration 2.5): 22%
- % inhibition apPOL 180' (DRC-2, concentration 5): 31%
- % inhibition apPOL 180' (DRC-2, concentration 10): 54%
- % inhibition apPOL 180' (DRC-2, concentration 20): 62%
- % inhibition apPOL 180' (DRC-2, concentration 40): 60%
- % inhibition apPOL 180' (DRC-2, concentration 80): 53%

Structure (SMILES): CC(NC(=O)Cc1cc(=O)[nH]c(SCc2cccc(Cl)c2)n1)c1ccccc1 (stereo not drawn) [Molecule 67, O=C(NC(c1ccccc1)C)Cc1nc(SCc2cccc(c2)Cl)[nH]c(=O)c1]
- DNA Pol [1]: 46
- DNA Pol (DNA Pol (primary screen value)): 46
- % inhibition Apo pol 10' (DRC-1, concentration 2.5): -1.6671%
- % inhibition Apo pol 10' (DRC-1, concentration 5): 0%
- % inhibition Apo pol 10' (DRC-1, concentration 10): 11.4347%
- % inhibition Apo pol 10' (DRC-1, concentration 20): 48.0532%
- % inhibition Apo pol 10' (DRC-1, concentration 40): 64.8608%
- % inhibition Apo pol 10' (DRC-1, concentration 80): 85.5547%
- % inhibition Apol 90' (DRC-1, concentration 2.5): -5.257%
- % inhibition Apol 90' (DRC-1, concentration 5): -6.461%
- % inhibition Apol 90' (DRC-1, concentration 10): 1.923%
- % inhibition Apol 90' (DRC-1, concentration 20): 26.5805%
- % inhibition Apol 90' (DRC-1, concentration 40): 38.5858%
- % inhibition Apol 90' (DRC-1, concentration 80): 80.0323%
- % inhibition apPOL 180' (DRC-1, concentration 2.5): -10.8024%
- % inhibition apPOL 180' (DRC-1, concentration 5): -10.8936%
- % inhibition apPOL 180' (DRC-1, concentration 10): -3.791%
- % inhibition apPOL 180' (DRC-1, concentration 20): 10.3203%
- % inhibition apPOL 180' (DRC-1, concentration 40): 18.891%
- % inhibition apPOL 180' (DRC-1, concentration 80): 71.4283%
- % inhibition Apo pol 5' (DRC-2, concentration 2.5): 0.743%
- % inhibition Apo pol 5' (DRC-2, concentration 5): -0.394%
- % inhibition Apo pol 5' (DRC-2, concentration 10): 30%
- % inhibition Apo pol 5' (DRC-2, concentration 20): 33%
- % inhibition Apo pol 5' (DRC-2, concentration 40): 27%
- % inhibition Apo pol 5' (DRC-2, concentration 80): 20%
- % inhibition Apol 40' (DRC-2, concentration 2.5): 0.551%
- % inhibition Apol 40' (DRC-2, concentration 5): 0.92%
- % inhibition Apol 40' (DRC-2, concentration 10): 36%
- % inhibition Apol 40' (DRC-2, concentration 20): 49%
- % inhibition Apol 40' (DRC-2, concentration 40): 52%
- % inhibition Apol 40' (DRC-2, concentration 80): 55%
- % inhibition ApPOL 90' (DRC-2, concentration 2.5): 0.178%
- % inhibition ApPOL 90' (DRC-2, concentration 5): -1%
- % inhibition ApPOL 90' (DRC-2, concentration 10): 32%
- % inhibition ApPOL 90' (DRC-2, concentration 20): 48%
- % inhibition ApPOL 90' (DRC-2, concentration 40): 54%
- % inhibition ApPOL 90' (DRC-2, concentration 80): 64%
- % inhibition apPOL 180' (DRC-2, concentration 2.5): -3%
- % inhibition apPOL 180' (DRC-2, concentration 5): -6%
- % inhibition apPOL 180' (DRC-2, concentration 10): 20%
- % inhibition apPOL 180' (DRC-2, concentration 20): 37%
- % inhibition apPOL 180' (DRC-2, concentration 40): 49%
- % inhibition apPOL 180' (DRC-2, concentration 80): 70%
